# Test results: patent publication US20050042714A1, “Glycoconjugates of sialic acid derivates, methods for their production and use thereof” (priority 2001, published 2005)
# Columns and labels:
# Assay type in all cases: cell-based, human
# [1] = system: HL60-I cells; test: uptake of peracetylated/esterified NeuAc: VVA and TML lectin staining by flow cytometry; conditions: for effect on cell surface sialylation (VVA and TML binding): 0.03 to 1 mM (NeuAc 1 or 5 mM), 0.5% DMSO
# Experimental: Peracetylation of NeuAc only facilitates uptake if the carboxyl group is additionally esterified. Hyposialylated HL60-I cells were cultivated in the presence of indicated synthetic sialic acid analogue (stock solution 200 mM in DMSO) ranging from 0.03 to 1 mM or 0, 1 or 5 mM NeuA for 72 h with DMSO concentrations adjusted to 0.5%. Cells were stained with either directly fluorochrome-coupled lectin VVA, or biotin-coupled lectin (TML) and streptavidin-FITC for analysis by flow cytometry. Values given are relative factors of change of the mean fluorescence intensity of pretreated cells relative to untreated cells. The bars represent arithmetic means±SD (n=3). Molecular structures are given below the diagram.
# Sugars are very hydrophilic and it has been shown that increasing the hydrophobicity by peracetylation of hydroxyl groups enables or facilitates uptake of disaccharides (Collins, B. E., Fralich, T. J., Itonori, S., Ichikawa, Y. and Schnaar, R. L. (2000) Glycobiology, 10, 11-20; Sarkar, A. K., Fritz, T. A., Taylor, W. H. and Esko, J. D. (1995) Proc Natl Acad Sci USA, 92, 3323-7; Sarkar, A. K., Rostand, K. S., Jain, R. K., Matta, K. L. and Esko, J. D. (1997) J Biol Chem, 272, 25608-16). For ManNAc derivatives it has been shown that peracetylation reduces required medium concentrations (Collins et al., 2000). The acetyl groups are cleaved-off intracellularly by cellular esterases (Collins et al., 2000; Sarkar et al., 1995; Sarkar et al., 1997) and the derivatives are then processed as known for the non-acetylated sugars. In order to address the question whether peracetylation also facilitates uptake of N-acetylneuraminic acid, HL60-I cells were cultivated in the presence of peracetylated NeuAc at concentrations ranging from 0.03 mM to 1 mM for 3 days. Changes in cell surface sialylation were measured by flow cytometry using Vicia Villosa agglutinin (VVA) and Tritrichomonas mobilensis lectin (TML). […] This represents a reduction in concentration by more than 16-fold and is in a similar range as reported for peracetylated ManNAc and ManNAc (Collins et al., 2000).
# (§1) Lyophilized FITC-conjugated lectins Vicia villosa (VVA) was obtained from Sigma, dissolved in H2O (1 mg/ml), aliquoted and stored at −20° C. according to the manufacturer's instructions. FITC-conjugated Limax flavus agglutinin (LFA) was from EY Laboratories (San Manteo, Calif., USA) and biotin-coupled Tritrichomonas mobilensis agglutinin (TLM) from Calbiochem. Lectin staining procedure and fluorescence-activated cell scanning on a Becton Dickinson FACScan cytometer using Cellquest II software were carried out as described (Keppler, O. T., Molden-hauer, G., Oppenländer, M., Schwartz-Albiez, R., Berger, E. G., Funderud, S., and Pawlita, M. (1992) Eur J Immunol 22(11), 2777-81). Briefly, cells (3×10^5) were washed twice in cold PBS and then incubated in 100 μl PBS/0.05% NaN3, containing either fluorochrome-conjugated lectins VVA (50 μg/ml), LFA (20 μg/ml), or biotinylated TLM (20 μg/ml) for 45 min on ice in the dark. For biotinylated TLM a secondary incubation step with steptavidin-FITC (20 μg/ml) (Sigma) for 30 min on ice in the dark is required. After washing with PBS, cells were resuspended in 300 μl PBS and analyzed by flow cytometry.
# [2] = system: HL60-I cells; test: metabolic complementation assay: lectin staining (VVA, LFA, TLM) of analogue-treated cells by flow cytometry; conditions: 5 mM, 24 h; for effect on VVA binding: decrease = masking of GalNAc by sialic acid
# Experimental: Medium supplementation with some synthetic sialic acid analogues restores cell surface sialylation in hyposialylated HL60-I cells. Cells were cultivated in the presence of indicated synthetic sialic acid analogue (5 mM) for 24 h and stained with either directly fluorochrome-coupled lectins (VVA, LFA) or biotin-coupled lectin (TLM) and streptavidin-FITC and analyzed by flow cytometry. Values are given as “relative factor of change” (RFC) of the “mean fluorescence intensity” (MFI) of sialic acid-treated cells relative to untreated cells. The bars represent arithmetic means±SD (n^34) of one (x) or ≧two experiments.
# To test whether cells can incorporate synthetic sialic acid analogues from the culture medium, a metabolic complementation assay was performed on endogenously hyposialylated, UDP-GlcNAc-2-epimerase-deficient HL60-I cells.
# Cells were cultivated for 24 h in the presence of one of 16 different synthetic sialic acid analogues, carrying distinct C5 or C9 modifications (FIG. 1), and subsequently, changes in cell surface sialylation were assessed by flow cytometry using three fluorochrome-conjugated sialic acid-sensitive lectins. Vicia villosa agglutinin (VVA) detects GalNAc residues, and its binding sites can be masked by the addition of terminal sialic acid residues.
# In sugar supplementation assays, cells seeded at 5×10^5 cells/ml in culture medium buffered with 40 mM HEPES (pH 7.2) were cultivated for 24 h in the presence or absence of 5 mM sialic acids (stocks of 100 mM dissolved in H2O, stored at 4° C.).
# as §1
# [3] = system: BJA-B K20 cells; test: HPLC of membrane-associated sialic acids from analogue-treated cells; conditions: serum-free, 5 mM, 48 h
# Experimental: Sialic acid analogues are incorporated in cell surface glycoconjugates. HPLC chromatograms of DMB-derivatised sialic acids hydrolysed from glycoproteins of sialic acid analogue-treated BJA-B K20 cells. (A) standards, (B) untreated cells, (C) cells cultivated in 5-N-fluoroacNeu, (D) cells cultivated in 9-iodo-NeuAc. Peaks were identified as follows: NeuGc (internal standard), NeuAc, 5-N-fluoroac-Neu, 9-iodo-NeuAc, Na-pyruvate (internal standard). Internal standards were added to each sample.
# To confirm that synthetic sialic acid analogues supplementing the medium were taken up and metabolically incorporated as analogues into surface sialoglyco-conjugates the membrane-associated sialic acid fraction was analyzed by High Performance Liquid Chromatography (HPLC). […]
# To confirm that the modifications are still present after incorporation into glycoconjugates sialic acids were cleaved off cell surfaces and analyzed by HPLC. […] Sialic acids derivation was performed according to a method as given below and samples were analyzed on a reversed-phase C18 column as described (Keppler, O. T., Stehling, P., Herrmann, M., Kayser, H., Grunow, D., Reutter, W., and Pawlita, M. (1995) J Biol Chem 270(3), 1308-14).
Structure (SMILES),effect on VVA binding [2],effect on LFA binding [2],effect on TLM binding [2],also measured
COC(=O)C1(OC(C)=O)C[C@H](OC(C)=O)[C@@H](NC(C)=O)[C@H]([C@H](OC(C)=O)[C@@H](COC(C)=O)OC(C)=O)O1 (stereo partly shown) [NeuAcperOAc-Me-ester],,,,"reduction in concentration relative to NeuAc ([1]; 0.3 mM vs 5 mM NeuAc): more than 16 fold; effect on cell surface sialylation (VVA and TML binding) ([1]; HL60-I cells, 72 h): strongly increased cell surface sialylation; medium concentration showing similar effects as 5 mM NeuAc ([1]; HL60-I cells, 72 h): 0.3 mM"
CC(=O)NC1C(OC(C)=O)CC(OC(C)=O)(C(=O)O)OC1C(OC(C)=O)C(COC(C)=O)OC(C)=O (stereo not shown) [NeuAcperOAc],,,,"effect on cell surface sialylation (VVA and TML binding) ([1]; HL60-I cells, 72 h): no effect on cell surface sialylation"
"CC(=O)N[C@H]1[C@H]([C@H](O)[C@H](O)CN)OC(O)(C(=O)O)C[C@@H]1O (stereo partly shown) [analogue b, 5-N-acetyl-9-amino-9-deoxy-neuraminic acid]",,,,changes in cell surface sialylation (lectin binding overall) [2]: failed to induce changes in cell surface sialylation
"CC(=O)NC[C@@H](O)[C@@H](O)[C@@H]1OC(O)(C(=O)O)C[C@H](O)[C@H]1NC(C)=O (stereo partly shown) [analogue c, 5-N-acetyl-9-acetamido-9-deoxy-neuraminic acid]",,,,changes in cell surface sialylation (lectin binding overall) [2]: failed to induce changes in cell surface sialylation
"CC(=O)N[C@H]1[C@H]([C@H](O)[C@H](O)CNC(=O)CN)OC(O)(C(=O)O)C[C@@H]1O (stereo partly shown) [analogue d, 9-N-aminoacetamido-9-deoxy-neuraminic acid]",weak or no effect on VVA binding,,,
"CC(=O)N[C@H]1[C@H]([C@H](O)[C@H](O)CNC(=O)CCC(=O)O)OC(O)(C(=O)O)C[C@@H]1O (stereo partly shown) [analogue e, 5-N-acetyl-9-deoxy-9-succinylamido-neuraminic acid]",weak or no effect on VVA binding,,,
"CC(=O)N[C@H]1[C@H]([C@H](O)[C@H](O)CS)OC(O)(C(=O)O)C[C@@H]1O (stereo partly shown) [analogue g, 5-N-acetyl-9-deoxy-9-thio-neuraminic acid]",significantly decreased VVA-binding,increased binding of LFA,increased binding,
"CSC[C@@H](O)[C@@H](O)[C@@H]1OC(O)(C(=O)O)C[C@H](O)[C@H]1NC(C)=O (stereo partly shown) [analogue h, 5-N-acetyl-9-deoxy-9-methylthio-neuraminic acid]",significantly decreased VVA-binding,increased binding of LFA,increased binding,
"CC(=O)N[C@H]1[C@H]([C@H](O)[C@H](O)CS(C)(=O)=O)OC(O)(C(=O)O)C[C@@H]1O (stereo partly shown) [analogue i, 5-N-acetyl-9-deoxy-9-methylsulfonyl-neuraminic acid]",significantly decreased VVA-binding,increased binding of LFA,increased binding,
"O=C(CF)N[C@H]1[C@H]([C@H](O)[C@H](O)CO)OC(O)(C(=O)O)C[C@@H]1O (stereo partly shown) [analogue j, 5-N-fluoroacetyl-neuraminic acid]",significantly decreased VVA-binding,increased binding of LFA,increased binding,share of membrane-associated sialic acids consisting of the analogue [3]: 90.5%
"O=C(N[C@H]1[C@H]([C@H](O)[C@H](O)CO)OC(O)(C(=O)O)C[C@@H]1O)C(F)(F)F (stereo partly shown) [analogue k, 5-N-trifluoroacetyl-neuraminic acid]",significantly decreased VVA-binding,,,
"NCC(=O)N[C@H]1[C@H]([C@H](O)[C@H](O)CO)OC(O)(C(=O)O)C[C@@H]1O (stereo partly shown) [analogue l, 5-N-aminoacetyl-neuraminic acid]",weak or no effect on VVA binding,,,
"O=C(O)CCC(=O)N[C@H]1[C@H]([C@H](O)[C@H](O)CO)OC(O)(C(=O)O)C[C@@H]1O (stereo partly shown) [analogue m, 5-N-succinyl-neuraminic acid]",weak or no effect on VVA binding,,,
"CC(=S)N[C@H]1[C@H]([C@H](O)[C@H](O)CO)OC(O)(C(=O)O)C[C@@H]1O (stereo partly shown) [analogue n, 5-N-thioacetyl-neuraminic acid]",significantly decreased VVA-binding,,increased binding,
"CCOC(=O)C1(O)C[C@H](O)[C@@H](NC(C)=O)[C@H]([C@H](O)[C@H](O)CO)O1 (stereo partly shown) [analogue p, ethyl N-acetyl neuraminate]",significantly decreased VVA-binding,increased binding of LFA,increased binding,effect on LFA binding ([2]; listed as NeuAc-Et-Ester): very similar to those of NeuAc; effect on TLM binding ([2]; listed as NeuAc-Et-Ester): very similar to those of NeuAc
